Data set [1] deals with T1, NPR-C (Homo sapiens, UniProt P17342).
T1 construct: expressed in transfected cells; host or cells: 293T
T1 sequence (P17342 27-541): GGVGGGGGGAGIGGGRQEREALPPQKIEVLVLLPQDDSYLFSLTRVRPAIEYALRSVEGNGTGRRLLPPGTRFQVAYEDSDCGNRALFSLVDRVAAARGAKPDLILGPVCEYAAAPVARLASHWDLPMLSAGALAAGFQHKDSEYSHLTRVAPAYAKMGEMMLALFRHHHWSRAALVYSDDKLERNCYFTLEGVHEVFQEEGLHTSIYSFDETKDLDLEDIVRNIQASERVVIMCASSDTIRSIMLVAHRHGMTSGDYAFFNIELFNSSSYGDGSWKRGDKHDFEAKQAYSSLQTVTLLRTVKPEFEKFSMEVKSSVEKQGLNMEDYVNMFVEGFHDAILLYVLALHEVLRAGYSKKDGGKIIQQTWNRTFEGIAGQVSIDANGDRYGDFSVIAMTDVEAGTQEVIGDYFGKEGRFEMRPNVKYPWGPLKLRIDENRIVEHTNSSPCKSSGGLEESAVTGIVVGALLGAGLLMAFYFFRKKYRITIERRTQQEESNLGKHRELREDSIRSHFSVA
The data set can be described thus: Cellular internalization of LS668 in stably transfected 293T-NPR-C cells (fluorescence microscopy). The format is cell-based. The arrangement: cellular internalization in presence of excess C-ANF peptide: dose or concentration left out as unconfirmed.

The target in data set [2] is T2, NPR-A (Homo sapiens, UniProt P16066).
T2 construct: expressed in transfected cells; host or cells: 293T
T2 sequence (P16066 33-1061): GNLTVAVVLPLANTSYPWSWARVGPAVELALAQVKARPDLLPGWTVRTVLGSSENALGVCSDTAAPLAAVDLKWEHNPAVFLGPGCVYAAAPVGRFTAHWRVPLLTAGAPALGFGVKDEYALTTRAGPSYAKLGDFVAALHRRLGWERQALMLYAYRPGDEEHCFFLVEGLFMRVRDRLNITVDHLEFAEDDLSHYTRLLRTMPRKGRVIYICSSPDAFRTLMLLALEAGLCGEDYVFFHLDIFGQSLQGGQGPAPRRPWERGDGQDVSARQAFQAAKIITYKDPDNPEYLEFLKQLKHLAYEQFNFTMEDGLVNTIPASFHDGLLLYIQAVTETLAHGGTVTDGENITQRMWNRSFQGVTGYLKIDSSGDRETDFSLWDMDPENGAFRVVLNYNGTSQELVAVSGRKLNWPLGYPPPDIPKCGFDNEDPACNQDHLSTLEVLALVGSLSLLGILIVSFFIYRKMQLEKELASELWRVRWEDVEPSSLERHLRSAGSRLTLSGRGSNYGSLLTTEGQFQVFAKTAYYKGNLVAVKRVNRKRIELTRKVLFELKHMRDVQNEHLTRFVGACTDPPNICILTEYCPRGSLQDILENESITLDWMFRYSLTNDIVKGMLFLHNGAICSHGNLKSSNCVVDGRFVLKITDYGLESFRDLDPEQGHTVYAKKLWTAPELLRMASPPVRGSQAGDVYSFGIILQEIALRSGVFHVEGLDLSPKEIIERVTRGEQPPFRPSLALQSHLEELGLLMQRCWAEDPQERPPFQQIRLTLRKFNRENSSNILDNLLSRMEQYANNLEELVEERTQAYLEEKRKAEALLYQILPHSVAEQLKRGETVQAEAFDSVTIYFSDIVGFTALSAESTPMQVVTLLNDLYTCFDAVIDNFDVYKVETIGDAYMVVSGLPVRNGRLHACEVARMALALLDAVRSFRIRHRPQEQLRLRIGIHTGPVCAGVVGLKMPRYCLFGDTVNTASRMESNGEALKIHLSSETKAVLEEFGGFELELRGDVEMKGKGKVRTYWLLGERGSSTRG
The data set can be described thus: Cellular internalization of LS668 in control 293T-NPR-A cells (fluorescence microscopy). The format is cell-based.

The subject of data set [3] is C-type natriuretic peptide receptors (NPR-C) on focal atherosclerotic lesions. The data set can be described thus: In vivo fluorescence molecular tomography (FMT) of focal atherosclerotic lesions in femoral arteries. To be noted: for integrated fluorescence signal, difference between control and injured arteries, P (unpaired t test, two tailed): n=3. Also noted: species or system New Zealand white rabbits. From the text: Carotid artery atherosclerosis is classified as an important cause of stroke. Unstable plaque is characterized by an eccentric neo-intimal lesion with a lipid core covered by a thinning cap of smooth muscle cells, active angiogenesis, increased matrix metalloproteinase activity, and translocation of monocyte/macrophages that transform into foam cells. Timely noninvasive imaging that could signal prerupture plaque progression will reduce the morbidity and mortality by allowing early intervention.^1 Although positron emission tomography (PET) and magnetic resonance imaging (MRI) are routinely used for metabolic and morphologic imaging, these modalities are not suited for frequent monitoring or even screening of at-risk patients because of ionizing radiation (PET) and expense (PET, MRI). Transcutaneous Doppler and intravascular ultrasound are insensitive to the subtle molecular changes of critical importance. Fluorescence molecular tomography (FMT) is an emerging optical imaging technology that allows tomographic and quantitative visualization of molecular events in vivo.^2 In this study, a custom built, fiber-based, portable, video-rate FMT system was used for proof-of-principle studies to detect C-type natriuretic peptide receptors (NPR-C) on focal atherosclerotic lesions in the superficial rabbit femoral arteries. The FMT system consisted of a flexible imaging pad (3 cm×3 cm), containing 12 sources 785 nm 20 kHz, and 830 nm 17-kHz laser diodes as excitation source and reference, respectively.^3 The detectors allowed for dynamic concurrent acquisition of frequency encoded fluorescence emission (830 nm; 20 kHz) and transmission reference (830 nm; 17 kHz) signals for the fast generation of ratio-metric data for tomographic reconstruction of the tissue volume. The system could report varying concentrations (1 nM to 1 M) of indocyanine green at various depths up to 13.5 mm with a depth-dependent spatial resolution on the order of 12 mm.^3
A model of focal atherosclerotic-like plaques in the femoral arteries (located 1 to 1.5 cm from skin surface) of New Zealand white rabbits was used. All animal studies performed were approved by the Washington University Animal Studies Committee. Endothelial denudation of surgically exposed right femoral artery was induced by air desiccation of the luminal surface as described previously.^4 The uninjured left femoral artery served as the internal control. The animals were maintained on a cholesterol-enriched diet (>200 mg dL in blood), and over time the air desiccation led to a focal lesion. In this animal model, anatomical coregistration was not used because the location of the lesion was apparent due to the surgical markings and identification by the surgeon at each imaging session. In a clinical setting, coregistration of the FMT probe with the ultra sound (US) probe can be utilized. […] Natriuretic peptides (NPs) play an important role in regulating cardiovascular homeostasis. NPR-C (clearance receptor) removes NPs from circulation by receptor mediated endocytosis.^6 A bioconjugate LS668 (Cypate-RSSc[[…]]) (SEQ ID NO:3), consisting of a near infrared (NIR) fluorescent dye cypate conjugated to a targeting peptide, C-type atrial natriuretic peptide, specific for NPR-C was evaluated (FIG. 1A). […] Both injured and control femoral arteries of three animals were imaged at day 3 and weeks 1, 2, 4, 6, and 8 following the surgery. […]

On the set-up of data set [4]: species or system New Zealand white rabbits. To be noted: rabbit, in vivo. From the text: A model of focal atherosclerotic-like plaques in the femoral arteries (located 1 to 1.5 cm from skin surface) of New Zealand white rabbits was used. All animal studies performed were approved by the Washington University Animal Studies Committee. Endothelial denudation of surgically exposed right femoral artery was induced by air desiccation of the luminal surface as described previously.^4 The uninjured left femoral artery served as the internal control. The animals were maintained on a cholesterol-enriched diet (>200 mg dL in blood), and over time the air desiccation led to a focal lesion. In this animal model, anatomical coregistration was not used because the location of the lesion was apparent due to the surgical markings and identification by the surgeon at each imaging session. […] NPR-C (clearance receptor) removes NPs from circulation by receptor mediated endocytosis.^6 A bioconjugate LS668 (Cypate-RSSc[[…]]) (SEQ ID NO:3), consisting of a near infrared (NIR) fluorescent dye cypate conjugated to a targeting peptide, C-type atrial natriuretic peptide, specific for NPR-C was evaluated (FIG. 1A). […] Integrated fluorescence signal (directly related to the quantity of LS668 in tissue) was calculated from each tissue volume (thresholded at above 20% of respective maximum signal) (FIG. 2H). […]

Data set [5] in a line: Ex vivo tissue biodistribution, injured vs control femoral artery. It is filed as in vivo, New Zealand white rabbits. The note with it: 24-h post-injection at week 8, n=2. From the text:
FIG. 2A, FIG. 2B, FIG. 2C, FIG. 2D, FIG. 2E, FIG. 2F, FIG. 2G, FIG. 2H and FIG. 2I depict images showing coronal (depth=7 mm), sagittal and transverse sections of reconstructed fluorescence molecular tomography (FMT) signal from injured artery (FIG. 2A, FIG. 2B, FIG. 2C) and corresponding control artery (FIG. 2D, FIG. 2E, FIG. 2F) from a representative animal (rabbit 1). White lines indicate the position of the respective sagittal and transverse sections. […] FIG. 2H depicts a graph showing time dependent changes in integrated fluorescence signal (mean SD, n=3) for injured and control arteries (*P=0.0283; **P=0.0282). FIG. 2I depicts a graph showing the mean (n=2) fluorescence intensity obtained from the ex vivo injured artery containing the lesion and the control artery.
A model of focal atherosclerotic-like plaques in the femoral arteries (located 1 to 1.5 cm from skin surface) of New Zealand white rabbits was used. All animal studies performed were approved by the Washington University Animal Studies Committee. […] NPR-C (clearance receptor) removes NPs from circulation by receptor mediated endocytosis.^6 A bioconjugate LS668 (Cypate-RSSc[[…]]) (SEQ ID NO:3), consisting of a near infrared (NIR) fluorescent dye cypate conjugated to a targeting peptide, C-type atrial natriuretic peptide, specific for NPR-C was evaluated (FIG. 1A). […]

The subject of data set [6] is NPR-C expressing macrophages. The data set can be described thus: Ex vivo staining of paraffin fixed artery sections with LS668, fluorescence microscopy. Also noted: species or system rabbit; fluorescence signal of control artery section after ex vivo staining: dose or concentration left out as unconfirmed. The note with it: 30 min, 37° C. On the procedure:
FIG. 3A, FIG. 3B and FIG. 3C depict images showing ex vivo studies on the paraffin fixed sections of injured (top row) and control artery (bottom row) sections obtained at 8 weeks postsurgery. FIG. 3A depicts bright field images showing IEL, internal elastic lamina; A, adventitia; M, media; 1° NEO, primary neointima. Scale: 500 m. FIG. 3B depicts corresponding fluorescence images (excitation/emission: 710 75 nm 810 90 nm) after ex vivo staining with LS668. Scale: 500 m. FIG. 3C depicts immunohistochemistry on tissue sections with clone RAM11 antibody (1:100 dilution; blue) for macrophages and counterstained with nuclear fast red. Scale: 250 m. Ex vivo histological validation studies were performed on the arteries at week 8 following the final imaging session. Prior to collecting the arterial segments, the vascular system was flushed with saline and then perfusion fixed with 4% paraformaldehyde and paraffin embedded. Tissue sections were deparaffinized for further studies. […] Histology sections were also stained for macrophages with mouse monoclonal antibody to rabbit macrophages (clone RAM11). Positive signal was visualized using alkaline phosphatase-conjugated secondary antibody and blue substrate, and nuclear fast red counterstain. […] Serial sections were also stained for alpha-smooth muscle actin (SMA).

Setting [7] is: 0.1 mg kg intravenous, FMT 24 h later.

“Also recorded” adds a separate entry of the source. Bridge positions count the residues as written; N and C are the ends. cypate = near infrared fluorescent dye cypate

As for “Cypate-RSSc[CFGGRIDRIGAC] (cypate-RSSCFGGRIDRIGAC-NH2; disulfide 4-15 (inferred); not fully specified) [LS668]”, in data set [1] (293T-NPR-C cells), the “cellular internalization in presence of excess C-ANF peptide” value is “Internalization was blocked; also recorded: inhibition of internalization”. Besides, in data set [1] (LS668, 30-min incubation at 37° C., 5% CO2, stably transfected 293T-NPR-C cells), the cellular internalization result is on record as “selectively internalized; also recorded: cellular internalization”. Besides, in data set [2], the “cellular internalization in control cells” value is on record as “did not internalize; also recorded: absence of internalization”. In data set [3] (setting [7]), the “uptake by tissue surrounding the localized fluorescent region” value is reported as “negligible nonspecific uptake” and the “uptake in contralateral noninjured control femoral artery” value is “negligible background uptake”. In data set [3] (0.1 mg kg intravenous, FMT 24 h later, injured artery, depth of 4 to 16 mm, over 15 mm of length), the “accumulation at focal lesion (reconstructed FMT data)” value was “localized fluorescence signal indicating accumulation of LS668”. Besides, the “integrated fluorescence signal, difference between control and injured arteries, P (unpaired t test, two tailed)” value in data set [3] (week 2 after surgery) came out at 0.0283. In addition, the “integrated fluorescence signal, difference between control and injured arteries, P (unpaired t test, two tailed)” value in data set [3] (week 6 after surgery) stood at 0.0282. Besides, the “time at which clearance from blood was achieved” value in data set [4] is reported as 24 h. In addition, the “localization into injured femoral artery as compared to control femoral artery” value in data set [5] was 3.7 fold. Besides, the “fluorescence signal of control artery section after ex vivo staining” value in data set [6] (week 8 control artery) was “uniform fluorescence signal akin to nonspecific background”. In data set [6] (LS668 10 M, week 8 injured artery, layers between adventitia and lumen), the “fluorescence signal of injured artery section after ex vivo staining” value was “increased signal”.

These data come from US20200330615A1, “NONINVASIVE IMAGING OF FOCAL ATHEROSCLEROTIC LESIONS USING FLUORESCENCE MOLECULAR TOMOGRAPHY” (Washington University, priority 2015, published 2020).
